Experimental data reported in publication PMC11969024, “Development of chemokine network inhibitors using combinatorial saturation mutagenesis” (Communications Biology, 2025).

Legend:
[1] = test system: J:CXCR1 cells; test: Chemokine dose-response, J:CXCR1 cell migration; assay type: cell-based, human; conditions: mean of 7 replicates
Description: (§1) Cell lines were confirmed mycoplasma free by monthly testing using a MycoAlert^TM kit (LT07-118, Lonza) following the manufacturer’s instructions. THP1 cells: THP1 cells (ECACC 88081201, a human monocyte leukemia cell line[51]) were obtained from ECACC and were cultured in T175 flasks at 0.3-1 × 10^6 cells/mL in Roswell Park Memorial Institute (RPMI) 1640 medium (R0883, Sigma) with 10% FBS (F9665, Sigma) and 5mM L-glutamine (G7513, Sigma), 37 °C, 5% CO2. J:CXCR1 cells: The J:CXCR1 cell line was cultured in the same manner as THP1 cells at 0.15-1 × 10^6 cells per mL[37]. Activated T-cells: T-cells were isolated, activated and expanded as follows. […] The final pellet was resuspended in 1 mL of MACS buffer per 5 mL of initial blood volume and counted using cell size FSC-H/SSC-H parameters with gate settings previously defined by immunostaining (see below). […]
(§2) Cell counts were determined using an ATTUNE NxT Flow Cytometer with Cytkick autosampler (ThermoFisher), based on cell size parameters FSC-H/SSC-H, with previously defined gate settings. FSC-H/SSC-H gate settings for primary white blood cells from buffy coats were determined using flow cytometry to establish the granulocyte, monocyte and lymphocyte populations (Supplementary Fig. 13). […]

[2] = test system: Lymphocytes; test: Buffy coat lymphocyte migration induced by disease chemokine pools, inhibition by peptide; assay type: cell-based, human; conditions: peptide 10 uM; pool at EC50; compared to HD2SCR
Source text: (§3) To assess the potential of combinatorially mutated peptides as therapeutic agents in inflammatory disease, we explored their efficacy against pools of chemokines known to be produced in diseased tissues. We developed the chemokine pool approach to represent the naturally occurring mix of chemokines present in diseased tissues as chemokines have well-known synergistic interactions that cannot be recapitulated when studied individually[8],[11],[55]–[60]. We chose three diseases, atherosclerotic plaque, rheumatoid arthritis, and type 1 diabetes as exemplars, as there is considerable evidence supporting the role of chemokines in their pathology[2]–[4]. To develop disease-relevant chemokine pools, we identified well-characterised bulk RNA-sequencing datasets from atherosclerotic plaque (GSE198600) and rheumatoid arthritis synovium (GSE198520)[61],[62]. […] We analysed chemokine expression levels (in transcripts per million) from these datasets (Supplementary Fig. 6). For each disease we designed a synthetic chemokine pool such that individual chemokine molar concentrations were at ratios determined by the mean relative expression of chemokines in the RNA-sequencing dataset. […] In these experiments we also assessed the effect of EVA4, the parental CC-chemokine binding evasin from which the HD2 series was derived.

[3] = test system: Monocytes; test: Buffy coat monocyte migration induced by disease chemokine pools, inhibition by peptide; assay type: cell-based, human; conditions: peptide 10 uM; pool at EC50; compared to HD2SCR
Source text: as §3

[4] = test system: THP1 cells; test: THP1 cell migration (Transwell) induced by individual chemokines, inhibition by peptide; assay type: cell-based, human
Description: as §1, §2

[5] = test system: J:CXCR1 cells (Jurkat cells stably transfected with CXCR1); test: J:CXCR1 cell migration induced by CXCL6, inhibition by peptide; assay type: cell-based, human; conditions: peptide 10 uM; CXCL6 at EC80; Dunnett's test
Description: as §1, with “follows. Briefly, density gradient centrifugation using Lymphoprep^TM density gradient medium (07801, […] Technologies) and a SepMate^TM isolation tube (85450, […] Technologies) was used to isolate peripheral blood mononuclear cells from human leukocyte cones. Two rounds of purification using a human CD8 + T-cell isolation kit (480011, BioLegend) were used to isolate CD8 + T-cells from peripheral blood mononuclear cells. Activation of CD8 + T-cells was performed in ImmunoCult^TM-XF T-cell expansion medium (10982, […] Technologies) with an anti-CD3/anti-CD28 T-cell activator at 25 μl/ml (10991, […] Technologies), supplemented with 10 ng/ml recombinant human IL-2 (200-02, PeproTech) with 1% penicillin/streptomycin.” for “follows.”
as §2

[6] = test system: THP1 cells, activated T-cells (ATC), J:CXCR1 cells; test: Meta-analysis of individual chemokine-induced cell migration experiments; assay type: cell-based, human; conditions: seven CC and three CXC chemokines, Dunnett's test
Description: Cell migration assays were performed as follows. THP1 cell migration. Briefly, 300000 cells/well were added to the top chamber of a 5-µm 96-well Transwell insert (3387, Corning) in 50 µL of cell migration media (RPMI-1640 (R0883, Sigma), 0.5% FBS (F9665, Sigma), 4mM L-Glutamine (G7513, Sigma), 0.05% DMSO (D4540, Sigma)). The bottom chamber contained 150 µL of migration media with chemokine and peptide. Cells were migrated at 37 °C in 5% CO2 for 4 h. J:CXCR1 cell migration was performed exactly as above using a 3-µm Transwell insert (3385, Corning). Activated T-cell migration. Briefly, 100000 cells/well were added to the top chamber of a 3-µm Transwell insert (3385, Corning) in 50 µL of migration media (HBSS (14025-092, Life Technologies), 0.1% protease free bovine serum albumin (A7030, Sigma), 0.05% DMSO (D4540, Sigma)). The bottom chamber contained 150 µL of migration media with chemokine and peptide. Cells were migrated at 37 °C in 5% CO2 for 2 h. Buffy coat migration. Briefly, a mixture of all cell types at 100000 cells/well were added to the top chamber of a 3-µm Transwell insert (3385, Corning) in 50 µL of migration media (HBSS (14025-092, Life Technologies), 0.1% protease free bovine serum albumin (A7030, Sigma), 0.05% DMSO (D4540, Sigma). The bottom chamber contained 150 µL of migration media with chemokine and peptide. Cells were migrated at 37 °C in 5% CO2 for 2 h. Analysis of cell migration. The migration plate was shaken at 850 RPM for 10 min, and media from bottom plate transferred to a round-bottomed 96 well plate (353910, Falcon). Cells were counted by flow cytometry as described above. Experiments were performed at chemokine EC80 for individual chemotaxis experiments and at EC50 for the pooled chemokine experiments, with three technical replicates, and at least three biological replicates. Statistical significance of differences between control and test groups was evaluated using a two-sided Dunnett’s test with multiple testing correction. Chemokine EC80 or chemokine pool EC50 values were as determined by performing a chemokine dose-response against the cell type and fitting the dose-response curve with a 3-parameter log-logistic model, where the maximal response is fixed at 100% response. […] IC50 was determined by performing inhibitor dose-response experiments and fitting the dose-response curve with a 3-parameter log-logistic model, fixing the bottom of the curve to zero. […] For summary statistics and comparisons, pEC50, pEC80 and pIC50 were calculated as the negative log10 of EC50, EC80 or IC50 expressed in moles/litre.
Sample size and estimated effect sizes were not formally calculated for cell-based or phage-display experiments and no randomization was performed. […]

[7] = test system: activated CD8+T-cells (ATC); test: Activated T-cell (ATC) migration induced by individual chemokines, inhibition by peptide; assay type: cell-based, human; conditions: peptide 10 uM; chemokines at EC80; Dunnett's test
Description: Cell lines were confirmed mycoplasma free by monthly testing using a MycoAlert^TM kit (LT07-118, Lonza) following the manufacturer’s instructions. THP1 cells: THP1 cells (ECACC 88081201, a human monocyte leukemia cell line[51]) were obtained from ECACC and were cultured in T175 flasks at 0.3-1 × 10^6 cells/mL in Roswell Park Memorial Institute (RPMI) 1640 medium (R0883, Sigma) with 10% FBS (F9665, Sigma) and 5mM L-glutamine (G7513, Sigma), 37 °C, 5% CO2. J:CXCR1 cells: The J:CXCR1 cell line was cultured in the same manner as THP1 cells at 0.15-1 × 10^6 cells per mL[37]. Activated T-cells: T-cells were isolated, activated and expanded as follows. Briefly, density gradient centrifugation using Lymphoprep^TM density gradient medium (07801, […] Technologies) and a SepMate^TM isolation tube (85450, […] Technologies) was used to isolate peripheral blood mononuclear cells from human leukocyte cones. Two rounds of purification using a human CD8 + T-cell isolation kit (480011, BioLegend) were used to isolate CD8 + T-cells from peripheral blood mononuclear cells. Activation of CD8 + T-cells was performed in ImmunoCult^TM-XF T-cell expansion medium (10982, […] Technologies) with an anti-CD3/anti-CD28 T-cell activator at 25 μl/ml (10991, […] Technologies), supplemented with 10 ng/ml recombinant human IL-2 (200-02, PeproTech) with 1% penicillin/streptomycin. T-cells were passaged every 2–3 days in TexMACS medium (130-097-196, Miltenyi Biotec), supplemented with 10 ng/ml human IL-2 (200-05-250, Peprotech) and incubated at 37 °C in 5% CO2. CD8 + T-cells were frozen at day 10-13 after initial activation, at 20×10^6 cell/ml in TexMACS medium supplemented with 10% DMSO (D2650, Sigma) in liquid nitrogen. Activated CD8^+ T-cells were recovered in TexMACs medium at 0.3 × 10^6 cell/ml and incubated at 37 °C in 5% CO2, 24 h prior to use. For buffy coat experiments a mixture of primary human monocytes, granulocytes and lymphocytes was isolated from human buffy coat. Briefly, RBCs were sedimented in HetaSep (07806, […] Technologies) with 1 mL of HetaSep per 5 mL of blood for 15 min at 37 °C. The buffy coat layer was collected from the top and washed in 50 ml MACS buffer (PBS (P4417, Sigma), 0.5% BSA (A7030, Sigma), 0.075% EDTA (E5134, Sigma), pH 7.2), by centrifugation at 2000 g for 10 min at room temperature. The pellet was resuspended in 10 mL of 1x RBC lysis solution (130-094-183, Miltenyi Biotec) and lysed for 10 min at room temperature. The cells were then washed in MACS buffer twice as above. The final pellet was resuspended in 1 mL of MACS buffer per 5 mL of initial blood volume and counted using cell size FSC-H/SSC-H parameters with gate settings previously defined by immunostaining (see below). The leukocytes were then resuspended in assay buffer for cell migration and used within 30 min of isolation.
Cell counts were determined using an ATTUNE NxT Flow Cytometer with Cytkick autosampler (ThermoFisher), based on cell size parameters FSC-H/SSC-H, with previously defined gate settings. FSC-H/SSC-H gate settings for primary white blood cells from buffy coats were determined using flow cytometry to establish the granulocyte, monocyte and lymphocyte populations (Supplementary Fig. 13). Briefly, cells were labelled with anti-CD3 (Miltenyi Biotec, 130-113-135) to identify the T cell population, anti-CD14 (Miltenyi Biotec, 130-110-578) to identify the monocyte population, and with anti-CD16 (Miltenyi Biotec, 130-113-951) to identify the granulocyte population. Negative control cells were labelled with anti-human IgG1 (Miltenyi Biotec, 130-113-434). All antibodies were allophycocyanin (APC) conjugated. 100,000 white blood cells were added to Eppendorf tubes and centrifuged at 300 g for 3 min. The supernatant was discarded, and the cells resuspended in 98 µL of MACS buffer (1× PBS, 2 mM EDTA and 0.5% BSA, sterile filtered). 2 µl of antibody was added to the cells. […]

[8] = lyophilised peptide, data provided by the manufacturer, ref GenScript, cited from earlier work

Substance: CXCL6: human chemokine, Peprotech 300-41
- Mean pEC50 [1]: 7.71 [M]
- Mean pEC80 [1]: 7.45 [M]

Substance: DDDDWDAYAPIWCYFT [HD2CM452, combinatorially mutated HD2 peptide, CM-maxCC group]
- inhibition of lymphocyte migration, atherosclerosis pool [2]: significant inhibition
- inhibition of lymphocyte migration, rheumatoid arthritis pool [2]: significant inhibition

Substance: DDDDWDDYAPITCYFD [HD2CM539, combinatorially mutated HD2 peptide, CM-max group]
- inhibition of monocyte migration, insulitis pool [3]: significant inhibition

Substance: DWDDWTAYWDLVCYFD [HD2CM3085, combinatorially mutated HD2 peptide, CM-min group]
- inhibition of CCL8 migration compared to the parental peptide ([4]; peptide 0.1 uM, CCL8 at EC80): significantly worse
- inhibition of CCL7 migration compared to the parental peptide ([4]; peptide 5 uM, CCL7 at EC80): no differently

Substance: EEDDYTAYAPLTCYFC [HD2T16C, HD2 point mutant]
- inhibition of CXCL6-induced migration of J:CXCR1 cells compared to parental HD2 [5]: significant improvement in inhibition
- migrated cell count over all chemokines studied, compared to HD2 (meta-analysis) [6]: significant improvement over HD2
- inhibition of CCL19, CCL21, CXCL9, and CXCL11-induced migration of ATCs compared to parental HD2 [7]: significant improvement in inhibition

Substance: EEDDYTAYWPLTCYFT [HD2A9W, HD2 point mutant]
- inhibition of CXCL6-induced migration of J:CXCR1 cells compared to parental HD2 [5]: significant improvement in inhibition
- migrated cell count over all chemokines studied, compared to HD2 (meta-analysis) [6]: significant improvement over HD2
- Solubility, Water ([8]; C-terminal amide): Insoluble
- Solubility, DMSO [8]: Insoluble
- Solubility, HCOOH [8]: Soluble
- Solubility, PBS [8]: Insoluble
- inhibition of CCL19, CCL21, CXCL9, and CXCL11-induced migration of ATCs compared to parental HD2 [7]: significant improvement in inhibition
